Experimental data published in ChEMBL document CHEMBL3779768, “Simple N(ε)-thioacetyl-lysine-containing cyclic peptides exhibiting highly potent sirtuin inhibition” (Bioorg Med Chem Lett, 2016).
*1 amine or outer side, *2 acyl side, *3 side chain or, on linkers, in order; H or OH if unused. Where a SMILES comes first, the peptide text is derived from it. Bridges are numbered along the chain shown (N, C = ends). [ ]: non-standard residue; d: D form. Suberoyl(Gly)2 = O=C(CCCCCCC(=O)NCC(=O)[*:2])NCC(=O)[*:1]; Lys(Thioacetyl) = CC(=S)NCCCC[C@H](N)C(=O)O; Suberoyl = O=C(CCCCCCC(=O)[*:2])[*:1]; Adipoyl = O=C(CCCCC(=O)[*:2])[*:1]; Suc = O=C(CCC(=O)[*:2])[*:1]

Experiments:
[1] = biological target: T1, NAD-dependent protein deacetylase sirtuin-1 (Homo sapiens, UniProt Q96EB6); assay: Inhibition of recombinant GST-tagged human SIRT1 using 0.3 mM H2N-HK-[N(epsilon)-acetyl-lysine]-LM-COOH as substrate measured after 10 mins HPLC analysis in presence of 0.5 mM beta-NAD+
T1 sequence (Q96EB6 whole entry): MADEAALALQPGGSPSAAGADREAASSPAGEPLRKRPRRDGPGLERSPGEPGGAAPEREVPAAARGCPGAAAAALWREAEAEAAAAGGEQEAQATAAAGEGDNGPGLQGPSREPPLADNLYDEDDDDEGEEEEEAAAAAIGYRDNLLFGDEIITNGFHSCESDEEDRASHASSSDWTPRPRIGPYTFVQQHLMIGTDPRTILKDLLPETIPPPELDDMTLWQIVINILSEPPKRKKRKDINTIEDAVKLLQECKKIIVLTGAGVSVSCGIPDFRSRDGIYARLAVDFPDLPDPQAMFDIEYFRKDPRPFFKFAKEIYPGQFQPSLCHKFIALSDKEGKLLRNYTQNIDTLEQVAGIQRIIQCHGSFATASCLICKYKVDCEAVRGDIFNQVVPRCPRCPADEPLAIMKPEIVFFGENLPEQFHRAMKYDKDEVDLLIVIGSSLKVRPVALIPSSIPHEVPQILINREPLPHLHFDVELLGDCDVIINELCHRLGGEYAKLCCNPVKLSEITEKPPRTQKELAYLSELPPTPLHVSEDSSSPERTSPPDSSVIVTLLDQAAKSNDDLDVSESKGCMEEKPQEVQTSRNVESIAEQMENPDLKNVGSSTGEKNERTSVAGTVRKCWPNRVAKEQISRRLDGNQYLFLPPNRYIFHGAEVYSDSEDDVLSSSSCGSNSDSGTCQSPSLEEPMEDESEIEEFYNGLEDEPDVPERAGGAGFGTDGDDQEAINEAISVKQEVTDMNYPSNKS

[2] = biological target: T2, NAD-dependent protein deacetylase sirtuin-3, mitochondrial (Homo sapiens, UniProt Q9NTG7); assay: Inhibition of recombinant His6 tagged human SIRT3 using 0.105 mM H2N-HK-[N(epsilon)-acetyl-lysine]-LM-COOH as substrate measured after 10 mins HPLC analysis in presence of 3.5 mM beta-NAD+
T2 sequence (Q9NTG7 whole entry): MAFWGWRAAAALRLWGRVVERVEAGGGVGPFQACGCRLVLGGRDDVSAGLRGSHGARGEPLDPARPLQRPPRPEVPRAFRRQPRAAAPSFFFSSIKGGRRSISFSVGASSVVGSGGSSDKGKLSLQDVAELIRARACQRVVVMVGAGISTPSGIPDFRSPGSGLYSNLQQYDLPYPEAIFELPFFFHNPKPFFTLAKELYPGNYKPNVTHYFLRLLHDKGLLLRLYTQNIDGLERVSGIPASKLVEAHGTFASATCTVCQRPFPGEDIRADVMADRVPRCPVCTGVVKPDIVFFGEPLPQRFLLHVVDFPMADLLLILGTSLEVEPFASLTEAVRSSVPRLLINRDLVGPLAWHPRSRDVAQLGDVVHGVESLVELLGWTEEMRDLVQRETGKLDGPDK

[3] = biological target: T3, NAD-dependent protein deacetylase sirtuin-2 (Homo sapiens, UniProt Q8IXJ6); assay: Inhibition of recombinant His6 tagged human SIRT2 using 0.39 mM H2N-HK-[N(epsilon)-acetyl-lysine]-LM-COOH as substrate measured after 12 mins HPLC analysis in presence of 0.5 mM beta-NAD+
T3 sequence (Q8IXJ6 whole entry): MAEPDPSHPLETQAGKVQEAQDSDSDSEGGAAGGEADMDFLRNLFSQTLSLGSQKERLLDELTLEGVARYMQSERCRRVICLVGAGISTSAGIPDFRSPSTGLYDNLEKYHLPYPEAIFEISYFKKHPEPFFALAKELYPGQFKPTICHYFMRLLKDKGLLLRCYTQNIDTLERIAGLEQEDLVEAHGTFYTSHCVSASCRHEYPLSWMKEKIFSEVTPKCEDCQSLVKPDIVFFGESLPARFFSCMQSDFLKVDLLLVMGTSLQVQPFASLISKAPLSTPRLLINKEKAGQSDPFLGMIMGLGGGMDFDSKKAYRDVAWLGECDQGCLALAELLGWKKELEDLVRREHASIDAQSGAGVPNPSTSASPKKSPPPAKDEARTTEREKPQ

[4] = biological target: T1, NAD-dependent protein deacetylase sirtuin-1; assay: Inhibition of human SIRT1 (133 to 747 amino acid residues) assessed as deacetylation using Z-Lys(Acetyl)-AMC as substrate measured after 4 hrs by fluorescence based microplate reader method in presence of 500 uM beta-NAD+
[5] = biological target: T2, NAD-dependent protein deacetylase sirtuin-3, mitochondrial; assay: Inhibition of human SIRT3 expressed in Escherichia coli BL21 (DE3) assessed as deacetylation using Z-Lys(Acetyl)-AMC as substrate measured after 4 hrs by fluorescence based microplate reader method in presence of 500 uM beta NAD+
[6] = biological target: T3, NAD-dependent protein deacetylase sirtuin-2; assay: Inhibition of human SIRT2
[7] = biological target: T1, NAD-dependent protein deacetylase sirtuin-1; assay: Inhibition of SIRT1 (unknown origin)
[8] = biological target: T2, NAD-dependent protein deacetylase sirtuin-3, mitochondrial; assay: Inhibition of SIRT3 (unknown origin)

Row | Structure (SMILES) | IC50 [1] | IC50 [2] | IC50 [3] | other results
1 | CSCC[C@H](NC(=O)[C@@H]1CCCCNC(=O)CCC(=O)NCCCC[C@H](NC(C)=O)C(=O)N[C@@H](CCCCN)C(=O)N[C@@H](CCCCNC(C)=S)C(=O)N1)C(N)=O (Ac-KK[Lys(Thioacetyl)]KM-NH2; linker 1-4 via Suc) | 75.2 nM | – | 10.1 nM | –
2 | Cc1cc(C)nc(SCC(=O)Nc2ncc(Cc3cccc4ccccc34)s2)n1 | – | – | – | IC50 [4]: > 140000 nM; IC50 [5]: > 140000 nM
3 | CSCC[C@H](NC(=O)[C@H](CC(C)C)NC(=O)[C@H](CCCCNC(C)=S)NC(=O)[C@H](CCCCN)NC(=O)[C@H](Cc1c[nH]cn1)NC(C)=O)C(N)=O (Ac-HK[Lys(Thioacetyl)]LM-NH2) | 165 nM | – | 332 nM | –
4 | CC[C@H](C)[C@@H]1NC(=O)[C@H](CCCNC(=N)N)NC(=O)[C@H](Cc2ccccc2)NC(=O)[C@H](CC(N)=O)NC(=O)[C@@H](CO)NC(=O)[C@H](Cc2ccc(O)cc2)NC(=O)CSC[C@@H](C(N)=O)NC(=O)[C@H](CO)NC(=O)[C@H](CO)NC(=O)[C@H](CC(N)=O)NC(=O)[C@H](CO)NC(=O)[C@H](Cc2ccc(O)cc2)NC(=O)[C@H](CCCNC(=N)N)NC(=O)[C@H](CCCCNC(=O)C(F)(F)F)NC1=O | – | – | – | IC50 [6]: 3.2 nM; IC50 [7]: 47 nM; IC50 [8]: 480 nM

Second part, led by results:

Row | IC50 [1] | IC50 [2] | IC50 [3] | Structure (SMILES) | other results
5 | 2.3 nM | 42.9 nM | 144 nM | CSCC[C@H](NC(=O)[C@@H]1CCCCNC(=O)CNC(=O)CCCCCCC(=O)NCC(=O)NCCCC[C@H](NC(C)=O)C(=O)N[C@@H](CCCCN)C(=O)N[C@@H](CCCCNC(C)=S)C(=O)N1)C(N)=O (Ac-KK[Lys(Thioacetyl)]KM-NH2; linker 1-4 via Suberoyl(Gly)2) | –
6 | 56.8 nM | 103 nM | 58.9 nM | CSCC[C@H](NC(=O)[C@@H]1CCCCNC(=O)CNC(=O)CCC(=O)NCC(=O)NCCCC[C@H](NC(C)=O)C(=O)N[C@@H](CCCCN)C(=O)N[C@@H](CCCCNC(C)=S)C(=O)N1)C(N)=O | –
7 | 38.7 nM | 52.5 nM | 53.1 nM | CSCC[C@H](NC(=O)[C@@H]1CCCCNC(=O)CNC(=O)CCCCC(=O)NCC(=O)NCCCC[C@H](NC(C)=O)C(=O)N[C@@H](CCCCN)C(=O)N[C@@H](CCCCNC(C)=S)C(=O)N1)C(N)=O | –
8 | 63.5 nM | – | 134 nM | CSCC[C@H](NC(=O)[C@@H]1CCCCNC(=O)CCCCC(=O)NCCCC[C@H](NC(C)=O)C(=O)N[C@@H](CCCCN)C(=O)N[C@@H](CCCCNC(C)=S)C(=O)N1)C(N)=O (Ac-KK[Lys(Thioacetyl)]KM-NH2; linker 1-4 via Adipoyl) | –
9 | 37.1 nM | – | 404 nM | CSCC[C@H](NC(=O)[C@@H]1CCCCNC(=O)CCCCCCC(=O)NCCCC[C@H](NC(C)=O)C(=O)N[C@@H](CCCCN)C(=O)N[C@@H](CCCCNC(C)=S)C(=O)N1)C(N)=O (Ac-KK[Lys(Thioacetyl)]KM-NH2; linker 1-4 via Suberoyl) | –
